Laboratory results as given in paper PMC5826244 (OncoTargets and therapy, 2018).

Legend:
[1] = test system: LH-RH-I receptors expressed in rat pituitaries; settings: cited from earlier work
[2] = molecular target: T1, LH-RH-I receptors, membranes of human UM models (Homo sapiens, UniProt P30968); experiment: Radioligand binding / ligand competition, human UM samples; settings: increasing concentrations 10^−12–10^−6 M; data not shown
T1 sequence (P30968 1-328): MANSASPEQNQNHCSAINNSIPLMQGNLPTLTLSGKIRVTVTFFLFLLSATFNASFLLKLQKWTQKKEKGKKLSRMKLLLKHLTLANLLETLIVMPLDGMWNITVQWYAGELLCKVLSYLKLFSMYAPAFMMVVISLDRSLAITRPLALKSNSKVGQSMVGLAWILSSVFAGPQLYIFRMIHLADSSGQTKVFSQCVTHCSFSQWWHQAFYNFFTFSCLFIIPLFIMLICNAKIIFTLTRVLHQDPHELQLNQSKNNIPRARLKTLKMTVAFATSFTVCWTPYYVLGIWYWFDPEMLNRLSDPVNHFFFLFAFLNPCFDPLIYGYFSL

displacement of radiolabeled [D-Trp6]LH-RH binding [2] | Substance | binding affinity to LH-RH-I receptors [1]
 | [^125I][D-Trp[6]]LH-RH | high affinity binding
completely displaced | buserelin | 
